Measurements published in the NIST ThermoML archive (doi:10.1016/j.jct.2013.03.023).
Numbers after ± are expanded uncertainties.

Conditions: 101.33 kPa, Liquid; for viscosity: Capillary tube (Ostwald / Ubbelohde) method; for mass density: Vibrating tube method

Question: For `CC(O)c1ccccc1` (configuration not stated) [1-phenylethanol], which viscosity (298.15 K) is on record?
Answer: 8.703 ± 0.2 mPa·s

Question: What about the mass density (298.15 K) of the same compound?
Answer: 1009 ± 1 kg/m3

Question: And the viscosity (303.15 K)?
Answer: 6.981 ± 0.16 mPa·s

Question: And the mass density (303.15 K)?
Answer: 1004.86 ± 1 kg/m3

Question: What about the viscosity (308.15 K) of the same compound?
Answer: 5.714 ± 0.13 mPa·s

Question: What about the mass density (308.15 K) of the same compound?
Answer: 1000.73 ± 1 kg/m3

Question: And the viscosity (313.15 K)?
Answer: 4.748 ± 0.11 mPa·s

Question: And the mass density (313.15 K)?
Answer: 996.58 ± 1 kg/m3

Question: Which viscosity (298.15 K) does the source give for `O` [water] here?
Answer: 0.891 ± 0.019 mPa·s

Question: Which viscosity (298.15 K) does the source give for `CCc1ccccc1` [ethylbenzene] here?
Answer: 0.6378 ± 0.014 mPa·s

Question: What about the mass density (298.15 K) of the same compound?
Answer: 862.51 ± 1 kg/m3

Question: What about the viscosity (303.15 K) of the same compound?
Answer: 0.609 ± 0.013 mPa·s

Question: And the mass density (303.15 K)?
Answer: 858.1 ± 1 kg/m3

Question: And the viscosity (308.15 K)?
Answer: 0.5682 ± 0.012 mPa·s

Question: What about the mass density (308.15 K) of the same compound?
Answer: 853.68 ± 1 kg/m3

Question: What about the viscosity (313.15 K) of the same compound?
Answer: 0.541 ± 0.012 mPa·s

Question: And the mass density (313.15 K)?
Answer: 849.26 ± 1 kg/m3
